This passage reports Relative potency and Susceptibility results from ChEMBL document CHEMBL1151043, “The synthesis and antibacterial activity of 2-para-quarternary ammoniomethylphenyl-carbapenems” (1993).

One test deals with Klebsiella. Briefly: In vitro antibacterial activity against Klebsiella relative to thienamycin. Format: functional.
Test [1] relates to Staphylococcus aureus. Briefly: In vitro antibacterial activity against Staphylococcus aureus relative to thienamycin. Format: functional.
The next test relates to Serratia. Briefly: In vitro antibacterial activity against Serratia relative to thienamycin. Format: functional.
Test [2] has as its target T1, Dipeptidase 1 (Sus scrofa) (UniProt P22412).
T1 sequence (whole entry): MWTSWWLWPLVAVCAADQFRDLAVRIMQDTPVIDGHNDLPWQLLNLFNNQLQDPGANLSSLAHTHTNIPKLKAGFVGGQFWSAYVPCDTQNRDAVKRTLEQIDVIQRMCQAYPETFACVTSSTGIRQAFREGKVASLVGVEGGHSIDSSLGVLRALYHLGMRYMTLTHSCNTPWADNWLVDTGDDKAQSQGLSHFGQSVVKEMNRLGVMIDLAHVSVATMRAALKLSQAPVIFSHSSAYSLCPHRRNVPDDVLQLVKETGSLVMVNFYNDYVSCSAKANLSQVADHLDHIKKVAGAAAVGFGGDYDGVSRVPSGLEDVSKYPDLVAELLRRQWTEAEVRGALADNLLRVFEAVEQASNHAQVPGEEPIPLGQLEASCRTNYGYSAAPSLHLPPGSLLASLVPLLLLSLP
Nature of the test: Susceptibility of compound towards porcine Dehydropeptidase-1 relative to imipenem as […] was calculated.

In a further test the test system is Enterococcus. Briefly: In vitro antibacterial activity against Enterococcus relative to thienamycin. Format: functional.
The subject of the next test is Enterobacter. Briefly: In vitro antibacterial activity against Enterobacter relative to thienamycin. Format: functional.
For another test, the system named is Proteus. Briefly: In vitro antibacterial activity against Proteus relative to thienamycin. Format: functional, Proteus sp.
For the next test, the system named is Escherichia coli. Nature of the test: In vitro antibacterial activity against Escherichia coli relative to thienamycin. Format: functional.
The test system of a further test is Pseudomonas. Nature of the test: In vitro antibacterial activity against Pseudomonas relative to thienamycin. Format: functional.
For test [3], the system named is Staphylococcus aureus. Nature of the test: In vitro antibacterial activity against Staphylococcus aureus (4) relative to Thienamycin (1). Format: functional.

With `C[C@@H](O)[C@H]1C(=O)N2C(C(=O)[O-])=C(c3ccc(C[n+]4cc(N)cc5ccccc54)cc3)C[C@H]12`, the Relative potency in the test on Klebsiella was 0.9; with Staphylococcus aureus [1], 1.9; with Serratia, 9.2; in the test with Enterococcus, 12.1; in the test on Enterobacter it was 3.7; in the test on Proteus it was 9.2. Besides, the results for the Relative potency in the test on Escherichia coli and with Pseudomonas were 3.7 and 0.05, respectively. In test [2], the Susceptibility is 0.09.
In the case of `C[C@@H](O)[C@H]1C(=O)N2C(C(=O)[O-])=C(c3ccc(C[N+]4(C)CCOCC4)cc3)C[C@H]12`, the Relative potency was determined as 2.3 in the test with Klebsiella; 0.8 with Staphylococcus aureus [1]; 7.5 with Serratia; 10.6 with Enterococcus; 5.7 with Enterobacter; 6.1 in the test with Proteus. Moreover, the Relative potency in the test on Escherichia coli came out at 2; in the test with Pseudomonas it was 0.02. Moreover, in test [2], the Susceptibility is 0.02.
For the molecule `C[C@@H](O)[C@H]1C(=O)N2C(C(=O)[O-])=C(c3ccc(C[n+]4ccccc4N)cc3)C[C@H]12`, the Relative potency worked out at 2.6 with Klebsiella; 1.3 in the test with Staphylococcus aureus [1]; 11.3 with Serratia; 21.1 with Enterococcus; 6.1 in the test on Enterobacter; 8 with Proteus. Also, the Relative potency was found to be 2.8 in the test on Escherichia coli and 0.08 with Pseudomonas. In addition, the Susceptibility in test [2] is 0.11.
Turning to `C[C@@H](O)[C@H]1C(=O)N2C(C(=O)[O-])=C(c3ccc(C[N+]4(C)CCCC4)cc3)C[C@H]12`, the Relative potency was determined as 2.6 with Klebsiella; 0.9 in the test on Staphylococcus aureus [1]; 26 in the test with Serratia; 13.9 in the test with Enterococcus; 7.5 in the test with Enterobacter; 8.6 in the test on Proteus. Also, the Relative potency in the test with Escherichia coli was determined as 3.2; in the test on Pseudomonas it was 0.03. In test [2], the Susceptibility is 0.03.
Turning to `C[C@@H](O)[C@H]1C(=O)N2C(C(=O)[O-])=C(c3ccc(C[n+]4cccc5ccccc54)cc3)C[C@H]12`, the Relative potency in the test on Klebsiella came to 1.2; with Staphylococcus aureus [1] it was 1.5; with Serratia, 27.9; in the test with Enterococcus it was 24.3; with Enterobacter, 8.6; in the test on Proteus, 13. For the same molecule, the Relative potency stood at 6.1 in the test on Escherichia coli and 0.07 in the test on Pseudomonas. Besides, the Susceptibility in [2] was 0.07.
Take `C[C@@H](O)[C@H]1C(=O)N2C(C(=O)[O-])=C(c3ccc(C[n+]4ccc(N5CCSCC5)cc4)cc3)C[C@H]12`: the Relative potency with Klebsiella is 1.1; in the test with Staphylococcus aureus [1] it was 1.2; with Serratia, 4.9; with Enterococcus, 4.9; in the test on Enterobacter it was 4.6; with Proteus it was 7. Moreover, the Relative potency with Escherichia coli turned out to be 5.3; with Pseudomonas it was 0.04. Also, the Susceptibility in test [2] is 0.09.
Consider `C[C@@H](O)[C@H]1C(=O)N2C(C(=O)[O-])=C(c3ccc(C[n+]4cccc(N)c4)cc3)C[C@H]12`, for which the Relative potency was 4.3 with Klebsiella; 2.3 with Staphylococcus aureus [1]; 22.6 in the test on Serratia; 17.1 in the test on Enterococcus; 11.3 with Enterobacter; 14.9 in the test with Proteus. The values for the Relative potency in the test with Escherichia coli and in the test with Pseudomonas were 7.5 and 0.1, respectively. In addition, the Susceptibility in [2] was 0.09.
`C[C@@H](O)[C@H]1C(=O)N2C(C(=O)[O-])=C(c3ccc(C[n+]4ccc5ccccc5c4N)cc3)C[C@H]12`: the Relative potency with Klebsiella stood at 0.7; in the test on Staphylococcus aureus [1], 1.3; with Serratia, 3.7; in the test with Enterococcus, 9.2; in the test on Enterobacter, 2.3; with Proteus, 3.7. Also, the Relative potency was determined as 2.7 in the test on Escherichia coli and 0.05 in the test with Pseudomonas. For the same molecule, the Susceptibility in test [2] was 0.14.
Consider `C[C@@H](O)[C@H]1C(=O)N2C(C(=O)[O-])=C(c3ccc(C[n+]4cccc(C(=O)[O-])c4)cc3)C[C@H]12.[K+]`, for which the Relative potency in the test on Klebsiella is listed as 2; in the test on Serratia, 27.9; with Staphylococcus aureus [3], 0.6; with Enterococcus, 5.3; in the test on Enterobacter, 12.1; with Proteus, 27.9. The Relative potency in the test on Escherichia coli turned out to be 6.1; with Pseudomonas, 0.08.
Regarding `C[C@@H](O)[C@H]1C(=O)N2C(C(=O)[O-])=C(c3ccc(C[n+]4ccc5ccccc5c4)cc3)C[C@H]12`, the Relative potency with Klebsiella was found to be 2; in the test on Staphylococcus aureus [1], 1.3; in the test on Serratia, 36.8; in the test on Enterococcus it was 24.3; in the test with Enterobacter, 11.3; with Proteus it was 17.1. The Relative potency worked out at 7.5 in the test with Escherichia coli and 0.07 in the test with Pseudomonas. Also, the Susceptibility in test [2] was 0.08.
Consider `C[C@@H](O)[C@H]1C(=O)N2C(C(=O)[O-])=C(c3ccc(C[n+]4cccc(C(F)(F)F)c4)cc3)C[C@H]12`, for which the Relative potency stood at 2.8 in the test on Klebsiella; 1.1 with Staphylococcus aureus [1]; 13 in the test on Serratia; 8 in the test with Enterococcus; 5.7 with Enterobacter; 3.7 in the test on Proteus. The Relative potency in the test with Escherichia coli came out at 3; in the test with Pseudomonas, 0.05. Moreover, the Susceptibility in test [2] was 0.04.
Regarding `C[C@@H](O)[C@H]1C(=O)N2C(C(=O)O)=C(c3ccc(CN4CCCCC4)cc3)C[C@H]12`, the Relative potency with Klebsiella was determined as 1.4; in the test on Staphylococcus aureus [1] it was 0.6; in the test on Serratia, 5.7; in the test with Enterococcus it was 6.1; in the test with Enterobacter, 4; in the test on Proteus, 8.6. The Relative potency turned out to be 2.5 with Escherichia coli and 0.05 in the test on Pseudomonas. Further, in [2], the Susceptibility was 0.03.
`C[C@@H](O)[C@H]1C(=O)N2C(C(=O)[O-])=C(c3ccc(C[n+]4ccc(N5CCCC5)cc4)cc3)C[C@H]12`: the Relative potency with Klebsiella stood at 0.8; in the test with Staphylococcus aureus [1] it was 0.6; in the test on Serratia it was 7.5; in the test with Enterococcus, 14.9; in the test on Enterobacter, 3; in the test with Proteus, 7.5. For the same molecule, the Relative potency worked out at 3.5 in the test with Escherichia coli and 0.04 with Pseudomonas. The Susceptibility in test [2] was 0.33.
As to `CO[C@@]1(NC(=O)Cc2cccs2)C(=O)N2C(C(=O)O)=C(COC(N)=O)CS[C@@H]21` [CEFOXITIN], the Relative potency in the test with Klebsiella is given as 0.04; with Serratia, 0.3; in the test on Staphylococcus aureus [3], 0.03; in the test with Enterococcus, 0.06; in the test on Enterobacter, 0.03; in the test with Proteus, 0.6. The Relative potency in the test on Escherichia coli was 0.1.
In the case of `C[C@@H](O)[C@H]1C(=O)N2C(C(=O)[O-])=C(c3ccc(C[N+]4(C)CCCCC4)cc3)C[C@H]12`, the Relative potency stood at 1.9 in the test with Klebsiella; 0.8 with Staphylococcus aureus [1]; 11.3 with Serratia; 14.9 with Enterococcus; 8 in the test on Enterobacter; 9.8 in the test with Proteus. In addition, the values for the Relative potency in the test on Escherichia coli and in the test on Pseudomonas were 5.3 and 0.03, respectively. Also, the Susceptibility in test [2] was 0.03.
In the case of `C[C@@H](O)[C@H]1C(=O)N2C(C(=O)O)=C(c3ccc(CN4CCN(C)CC4)cc3)C[C@H]12`, the Relative potency in the test on Klebsiella was determined as 1; with Staphylococcus aureus [1] it was 0.4; in the test with Serratia it was 7; with Enterococcus, 5.7; in the test on Enterobacter, 4.9; with Proteus, 9.2. For the same molecule, the Relative potency worked out at 3 in the test with Escherichia coli and 0.04 in the test with Pseudomonas. For the same molecule, in [2], the Susceptibility is 0.12.
As to `C[C@@H](O)[C@H]1C(=O)N2C(C(=O)[O-])=C(c3ccc(C[n+]4ccc(N5CCOCC5)cc4)cc3)C[C@H]12`, the Relative potency is on record as 2.1 in the test on Klebsiella; 0.5 in the test on Staphylococcus aureus [1]; 11.3 with Serratia; 4.6 in the test with Enterococcus; 9.8 in the test on Enterobacter; 4.6 in the test on Proteus. Further, the Relative potency in the test with Escherichia coli stood at 4; in the test on Pseudomonas, 0.1. Besides, the Susceptibility in test [2] is 0.06.
